Test results: patent publication US20250129101A1, “Compound, Pharmaceutical Composition Comprising the Same and Method for Treating Cancer Using the Same” (NATIONAL TSING HUA UNIVERSITY, priority 2023, published 2025)
Like-named read-outs stand apart in the source and are kept apart here.

Columns and labels:
[1] = system: 4T1 cells; test: Flow cytometry analysis of cell membrane penetration ability; type: cell-based, mouse; details: 2 hr of drug treatment
Protocol: To quantify the cell membrane penetration ability of different DHTP analogs, 4T1 cells were collected by trypsin after 2 hr of drug treatment and then transferred into microcentrifuge tubes. 4T1 cells were then resuspended into the FACS buffer (1% FBS, 2 mM EDTA, and 0.05% NaN3 in PBS). After two times of FACS buffer rinsing, these samples were detected by flow cytometry (Cyto FLEX™ FLOW Cytometer). The KO525 (405 nm laser; 525 nm filter) channel was used to detect DHTP and 7S9.

[2] = molecular target: T1, KIF2A (Homo sapiens, UniProt O00139); test: In vitro kinesin assay, KIF2A; type: biochemical; details: 50 μM (FIG. 4I)
T1 construct: KIF2A (181-562 a.a.); 6xHis (C); made in house; host or cells: E. coli BL21 (DE3), pET-28a
T1 sequence (O00139 181-562): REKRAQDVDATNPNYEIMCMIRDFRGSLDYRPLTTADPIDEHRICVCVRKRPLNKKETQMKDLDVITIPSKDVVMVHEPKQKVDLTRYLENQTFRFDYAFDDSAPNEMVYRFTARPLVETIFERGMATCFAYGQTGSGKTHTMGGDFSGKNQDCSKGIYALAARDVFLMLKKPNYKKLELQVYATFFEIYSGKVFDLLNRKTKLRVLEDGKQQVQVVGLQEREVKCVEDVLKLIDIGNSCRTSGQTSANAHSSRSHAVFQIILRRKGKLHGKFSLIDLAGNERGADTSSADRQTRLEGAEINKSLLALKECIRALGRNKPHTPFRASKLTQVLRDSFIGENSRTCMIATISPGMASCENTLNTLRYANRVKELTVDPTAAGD
Protocol: (§1) In vitro kinesin activity was measured using malachite green-based phosphate colorimetric assay (BioVision). […] The microtubules from porcine brain tubulin (Cytoskeleton) or purified from HEK293 cells in Free-style medium (293Fs) were dissolved in the BRB80 buffer (80 mM PIPES pH 6.8, 1 mM EGTA, 1 mM MgCl2, 1 mM GTP, 1 mM DTT, and 10% DMSO) at 37° C. for 2 hr. Phosphates released from kinesin-mediated ATP hydrolysis was measured by adding 30 μL of the phosphate colorimetric reagent (BioVision), incubated for 10 min, and then measured with absorbance at 650 nm.
(§2) Constructs of sN+M regions of KIF2C (216-598 a.a.), KIF2A (181-562 a.a.) and KIF2B (171-553 a.a.) with C-terminal 6×His tag were subcloned into pET-28a vector and expressed in BL21 (DE3) E. coli cells (Novartis) cultured in Luria-Bertani medium supplemented with 50 ug/mL kanamycin at 37° C. After induction with 0.8 mM IPTG for 18 hr at 20° C., the cells were pelleted by centrifugation at 6000 rpm for 30 min at 10° C. The collected pellets were resuspended in 30 mL of buffer A (20 mM Tris-HCl pH 7.5, 500 mM NaCl, 10 mM imidazole, 1% CHAPS, and 1 mM PMSF) and next subjected to a high-pressure homogenizer (EmulsiFlex-C3) for cell lysis. After removing the cell debris by centrifugation at 13000 rpm for 30 min at 10° C., the recombinant Kinesin-13 in the supernatant was purified using nickel affinity chromatography. […]

[3] = system: MDA-MB-231 cells; test: Cell validation: cytotoxicity in MDA-MB-231 cells (CellTiter-Glo); type: cell-based
Summary of the method: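 MDA-MB-231 cells were seeded at 2000 cells/well and exposed to compounds for the specified number of days. Medium was then replaced with a 1:1 CellTiter-Glo reagent/serum-supplemented DMEM mix for 10 min, and viability was read as luminescence, proportional to living cell number.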

[4] = molecular target: T2, KIF2B (Homo sapiens, UniProt Q8N4N8); test: In vitro kinesin assay, KIF2B; type: biochemical; details: 50 μM (FIG. 4I)
T2 construct: KIF2B (171-553 a.a.); 6xHis (C); made in house; host or cells: E. coli BL21 (DE3), pET-28a
T2 sequence (Q8N4N8 171-553): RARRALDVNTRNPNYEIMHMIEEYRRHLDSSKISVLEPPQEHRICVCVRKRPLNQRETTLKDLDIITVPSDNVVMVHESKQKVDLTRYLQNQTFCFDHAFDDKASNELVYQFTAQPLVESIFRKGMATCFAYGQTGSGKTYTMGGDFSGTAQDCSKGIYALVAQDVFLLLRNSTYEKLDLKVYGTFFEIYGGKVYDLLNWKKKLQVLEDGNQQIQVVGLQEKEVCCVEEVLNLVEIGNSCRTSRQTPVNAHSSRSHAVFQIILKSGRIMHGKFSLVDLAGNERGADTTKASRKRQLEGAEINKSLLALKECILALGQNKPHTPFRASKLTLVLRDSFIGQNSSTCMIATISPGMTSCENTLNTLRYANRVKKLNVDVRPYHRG
Protocol: as §1, §2

[5] = system: HeLa cells expressing H2B-mCherry and eGFP-tubulin; test: Live-cell imaging of intracellular microtubule distribution; type: cell-based
Protocol: For the microtubule distribution analysis, HeLa cell line stably expressing H2B-mCherry and eGFP-tubulin (a kind gift from Anthony A. Hyman, Max-Planck-Institute for Molecular Cell Biology and Genetics, Dresden, Germany) were treated with KIF2C inhibitors (10 μM DHTP or 10 μM 7S9) during imaging. Live-cell imaging was conducted on a Nikon T1 inverted fluorescence microscope (Nikon) with a 60× oil objective (Nikon), a Prime camera (Photometrics), and 37° C., 5% CO2 heat stage (Live Cell Instrument). Microtubule morphological changes were imaged at 3-min intervals. Images were obtained using ImageJ software processed with Gaussian Blur to remove the noise.

[6] = molecular target: T3, KIF2C (Homo sapiens, UniProt Q99661); test: In vitro validation: KIF2C kinesin activity, malachite green-based phosphate colorimetric assay; type: biochemical
T3 construct: KIF2C (216-598 a.a.); 6xHis (C); made in house; host or cells: E. coli BL21 (DE3), pET-28a
T3 sequence (Q99661 216-598): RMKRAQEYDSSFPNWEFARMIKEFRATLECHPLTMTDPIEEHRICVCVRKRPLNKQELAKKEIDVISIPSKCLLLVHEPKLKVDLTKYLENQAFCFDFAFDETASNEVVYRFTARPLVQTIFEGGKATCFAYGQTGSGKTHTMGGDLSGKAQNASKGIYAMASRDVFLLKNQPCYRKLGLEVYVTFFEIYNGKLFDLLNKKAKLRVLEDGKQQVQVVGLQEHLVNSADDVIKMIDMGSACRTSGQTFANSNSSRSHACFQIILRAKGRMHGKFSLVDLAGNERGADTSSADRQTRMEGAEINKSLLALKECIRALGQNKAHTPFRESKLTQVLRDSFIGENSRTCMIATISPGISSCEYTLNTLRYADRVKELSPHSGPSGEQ
Summary of the method: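 KIF2C sN+M construct (aa 216-598, C-terminal 6×His, E. coli-expressed) ATPase activity with microtubules from porcine brain tubulin or HEK293 (293Fs) cells in BRB80 (80 mM PIPES pH 6.8, 1 mM GTP, 10% DMSO), 37° C for 2 hr. Released phosphate detected by malachite green reagent, 10 min, A650.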

[7] = system: MDA-MB-231 R, MDA-MB-231 S, 4T1 S1, R4, and R8 cells; test: Cell viability of indicated cell lines, DHTP or 7S9 for 72 hr; type: cell-based; details: MDA-MB-231 R
Protocol: (§3) The cancer cells were cultured in a 96-well plate at a confluence of 1000-2000 cells/well with indicated drugs for specific days. When the time was up, the culture medium in the plate was aspirated and replaced with a prepared CellTiter-Glo reagent/DMEM mixture (1:1 mix of CellTiter-Glo reagent and serum-supplemented DMEM). After incubation for 10 min, the luminescence (proportional to the number of living cells) was measured with an ELISA plate reader to determine the cell viability.

[8] = system: 4T1 S1 cells; test: Time-lapse imaging of mitotic progression, 4T1 S1 cells; type: cell-based, mouse; details: paclitaxel (400 nM, FIG. 6D)
Protocol: To investigate the role of KIF2C in cell cycle progression, 4T1 cells were cultured in the 4-well chamber slide with about 50% confluence. The culture medium was replaced with a CO2-independent medium (Gibco) supplemented with 10% fetal bovine serum (Biological Industries) and 1% penicillin-streptomycin (Biowest). Then, each well of the chamber slide was treated with indicated drugs, such as DMSO, KIF2C inhibitors, or chemotherapy drugs. After that, the chamber slide was maintained in the microscope stage incubator with the supplement of humidified air with 5% CO2 at 37° C. Multiple-positional time-lapse imaging was performed using an automated Leica DM16000 inverted microscope equipped with HCX PL FL 20×/0.4 and EMCCD camera (Andor Luca R, Belfast, UK). Sequential differential interference contrast (DIC) images of cells obtained at indicated intervals were further analyzed using Metamorph software (Molecular Devices).

[9] = system: 4T1 S1 cells; test: Colony formation assay, 4T1 S1 cells; type: cell-based, mouse; details: 400 nM paclitaxel
Protocol: To assess the long-term survival of breast cancer cell lines following the treatment of KIF2C knockdown or inhibition, the cells trypsinized into single-cell suspension were homogeneously seeded in 6-well cell culture plates at a density of 5000 cells per dish, supplemented with 2× complete medium (50% 4×DMEM, 20% FBS, 2% penicillin-streptomycin, ddH2O, and 2× glutaMAX™), agarose (0.6% for bottom agar layer; 0.3% for top cell layer), ddH2O, and DMEM. After incubation for 24 hr, cells were treated with indicated drugs, such as DMSO, KIF2C inhibitors, or chemotherapy drugs, and then cultured at 37° C. incubator in an atmosphere of humidified air with 5% CO2 for a further 14-30 days. When the cell colonies grew to appropriate sizes, the culture mediums were replaced with PBS for washing. After that, the plates were stained with 10% crystal violet and analyzed using Image J.

[10] = system: 4T1 R4 cells; test: Cell viability assay, 4T1 R4 cells; type: cell-based, mouse
Protocol: (§4) MCF-7, MDA-MB-231, MDA-MB-468, Hs578T, 4T1, and HeLa cell lines stably expressing H2B-mCherry and eGFP-tubulin (kindly provided by Dr. Anthony A. Hyman, Max-Planck-Institute for Molecular Cell Biology and Genetics, Dresden, Germany) were cultured in high-glucose Dulbecco's Modified Eagle Medium (DMEM). SK-BR-3 cells were cultured in McCoy's Modified 5a Medium. Hs578T cells were cultured in high-glucose DMEM supplemented with an additional 0.01 mg/mL bovine insulin. […] All mentioned media were supplemented with 10% fetal bovine serum (Gibco) and 1% Penicillin/Streptomycin (Corning), and cells were incubated at 37° C. in a humidified atmosphere containing 5% CO2. HEK293 cells were cultured in HE300 medium (GMEP incorporated, Japan) and maintained in suspension culture with 125 rpm and 8% CO2.
as §3

[11] = system: MDA-MB-231 R; test: Cell viability assay, chemoresistant MDA-MB-231 R cells; type: cell-based; details: MDA-MB-231 R versus S cells, 72 hr paclitaxel
Protocol: as §3
(§5) The expression levels of KIF2A, KIF2B, and KIF2C in these cell lines were compared using Western blotting.

[12] = system: 4T1 S1 cells; test: Cell viability assay, 4T1 S1 cells; type: cell-based; details: Mus musculus, 72 hr, read-out: IC50, single treatment
Protocol: as §4, §3

[13] = system: 4T1 cells; test: In vivo tumor growth inhibition, 4T1 syngeneic model; set-up: species or system mouse; details: 4T1 tumors, BALB/c mice, paclitaxel 5 mg/kg intraperitoneally, 5on/2off two cycles
Protocol: (§6) The mice were housed at the National Health Research Institute (NHRI) Animal Center in accordance with the Institutional Animal Care and Use Committee procedures and guidelines. The 4T1-derived cells, including 4T1, 4T1 R4, and 4T1 R8, used for implantation were harvested during log phase growth and resuspended in phosphate-buffered saline. Each mouse was injected s.c. in the right flank with 5×10^5 cells. After tumor size reached 60-100 mm 3 (D1), mice were divided into groups and received treatment with vehicle or different compounds alone or in combinations. Tumor size, in mm 3, was measured twice per week and calculated from Tumor volume=(w 2×1)/2, where w=width and 1=length in mm of the tumor. The values of tumor size were expressed as mean±SEM.

[14] = system: 4T1 R cells; test: Cell viability assay, chemoresistant 4T1 R cells; type: cell-based, mouse; details: 4T1 R versus S cells, 72 hr paclitaxel
Protocol: as §3, §5

[15] = system: 4T1 R8 cells; test: Cell viability assay, 4T1 R8 cells; type: cell-based, mouse
Protocol: as §4, §3

[16] = system: 4T1 R4; test: In vivo tumor growth inhibition, 4T1 R4 syngeneic model; set-up: species or system mouse; details: R4 tumors, BALB/c mice, paclitaxel 15 mg/kg intraperitoneally, 5on/2off two cycles
Protocol: as §6

[17] = 72 hr, MTA with 2 μM 7S9, read-out: IC50 (nM), Combination
[18] = Mus musculus, 72 hr, drug alone, read-out: IC50 (nM), Single
[19] = Mus musculus, read-out: Paclitaxel IC50 (nM), C4 combination, with 10 μM C4
[20] = 2 μM 7S9, Chou and Talalay method

## CC1=C(C(=O)OC(C)C)C(c2ccc(Cl)cc2)n2c(s/c(=C\c3ccc(OCC(=O)O)cc3)c2=O)=N1 (stereo not drawn) [1S0 (1), reference compound]
[1]
  cell penetration, fluorescence signal at 510 nm emission (in words): no fluorescence signals
[2]
  inhibitory effect against KIF2A (in words): inhibited all three members of the kinesin-13 family
[3]; 72 hr
  cytotoxicity on MDA-MB-231 cells (in words): not cytotoxic
[3]; Homo sapiens, cytotoxicity in MDA-MB-231 cells
  IC50: > 50000 nM
[4]
  inhibitory effect against KIF2B (in words): inhibited all three members of the kinesin-13 family
[5]
  intracellular microtubule distribution phenotype (in words): tubulin aggregation phenotype was not detected
[6]; 50 μM (FIG. 4I)
  inhibitory effect against KIF2C (in words): inhibited all three members of the kinesin-13 family
[6]; 100 μM (FIG. 4B)
  inhibition of KIF2C kinesin activity (in words): could inhibit KIF2C kinesin activity
[6]; concentration that inhibits 50% of KIF2C activity
  EC50: < 10000 nM
[7]
  cytotoxicity (in words): not cytotoxic

## CC(=O)O[C@H]1C(=O)[C@@]2(C)[C@H]([C@H](OC(=O)c3ccccc3)[C@]3(O)C[C@H](OC(=O)[C@H](O)[C@@H](NC(=O)c4ccccc4)c4ccccc4)C(C)=C1C3(C)C)[C@]1(OC(C)=O)CO[C@@H]1C[C@@H]2O [Paclitaxel, paclitaxel]
[8]
  cells died in mitosis: Approximately 40%
[9]
  suppression of colony formation: 80%
[10]; [17]
  IC50: 6.4 nM
[10]; [18]
  IC50: 1540 nM
[10]; [19]
  IC50: 217 nM
[11]
  increase in chemoresistance: 2.5 fold
[12]
  IC50: 62 nM
[13]
  tumor growth inhibition: 31.3%
[14]
  increase in chemoresistance: 11.8 fold
[15]; [17]
  IC50: 6.1 nM
[15]; [18]
  IC50: 1120 nM
[15]; [19]
  IC50: 157 nM
[5]
  intracellular microtubule distribution phenotype (in words): significant accumulation of bundled microtubules at the cell periphery
[16]
  tumor growth inhibition: 41.7%

## CCC1=C[C@@H]2CN(C1)Cc1c([nH]c3ccccc13)[C@@](C(=O)OC)(c1cc3c(cc1OC)N(C)[C@H]1[C@@](O)(C(=O)OC)[C@H](OC(C)=O)[C@]4(CC)C=CCN5CC[C@]31[C@@H]54)C2 [Vinorelbine, vinorelbine]
[10]; 2 μM 7S9
  Fold change in chemosensitivity (IC50 single / 7S9 combination): 69
[10]; [20]
  CI (combination index), MTA with 7S9: 0.46
[10]; [18]
  IC50: 159 nM
[15]; 2 μM 7S9
  Fold change in chemosensitivity (IC50 single / 7S9 combination): 43
[15]; [20]
  CI (combination index), MTA with 7S9: 0.51
[15]; [18]
  IC50: 104 nM
